This is an account of results in BindingDB's records for patent US20250161319 (Asclepieion Pharmaceutical, 2025).

Each structure is given as a SMILES string. pIC50: −log10 of the molar value.

Chain of Mitogen-activated protein kinase kinase kinase kinase 1 (Q92918 whole entry): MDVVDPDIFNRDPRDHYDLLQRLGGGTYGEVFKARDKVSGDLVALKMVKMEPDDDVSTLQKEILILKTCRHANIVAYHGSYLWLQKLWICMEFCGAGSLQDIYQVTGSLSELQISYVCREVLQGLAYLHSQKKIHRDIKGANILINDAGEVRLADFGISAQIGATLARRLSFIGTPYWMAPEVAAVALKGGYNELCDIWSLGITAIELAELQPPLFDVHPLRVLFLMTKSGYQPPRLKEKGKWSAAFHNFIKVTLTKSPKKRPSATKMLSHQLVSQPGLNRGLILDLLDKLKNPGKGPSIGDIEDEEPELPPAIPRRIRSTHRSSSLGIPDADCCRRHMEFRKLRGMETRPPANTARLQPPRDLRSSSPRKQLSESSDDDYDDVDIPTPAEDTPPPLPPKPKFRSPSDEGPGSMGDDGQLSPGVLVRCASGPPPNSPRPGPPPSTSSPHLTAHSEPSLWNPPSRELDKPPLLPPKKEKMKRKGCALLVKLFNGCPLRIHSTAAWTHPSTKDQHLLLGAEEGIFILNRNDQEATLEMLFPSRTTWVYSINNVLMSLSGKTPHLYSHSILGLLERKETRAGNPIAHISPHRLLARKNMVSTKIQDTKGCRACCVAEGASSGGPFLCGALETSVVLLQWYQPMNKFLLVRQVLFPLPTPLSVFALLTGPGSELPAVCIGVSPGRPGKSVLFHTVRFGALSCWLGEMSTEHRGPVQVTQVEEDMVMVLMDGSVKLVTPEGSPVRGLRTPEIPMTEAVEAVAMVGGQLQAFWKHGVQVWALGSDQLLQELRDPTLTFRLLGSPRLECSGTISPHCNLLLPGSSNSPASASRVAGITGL

The test addresses Mitogen-activated protein kinase kinase kinase kinase 1 (Homo sapiens, UniProt Q92918). The experiment in a line: Tests of Compounds for Inhibiting HPK1 Kinase Activity In Vitro. Here is the method:
The compound dilution was transferred into 384-well plate by using a pipette, afterwards, the 384-well plate was sealed and centrifuged at 1000 g for 1 min. 2-fold concentration of HPK1 solution was prepared in the kinase buffer, and then 2.5 μL of the prepared 2-fold concentration of HPK1 solution was added into the 384 wells, centrifuged at 1000 g for 30 s, and incubated for 10 min at room temperature. A mixture of 2-fold concentration of MBP and ATP was prepare in the kinase buffer, and […] of prepared mixture of 2-fold concentration of MBP and ATP was added into the above reaction system for the reaction, centrifuged at 1000 g for 30 s, and then incubated at room temperature for 1 h, 5 μL of ADP-Glo reagent was added into the reaction system, and incubated at room temperature for 40 min. 10 μL of kinase detection reagent was added and incubated at room temperature for 40 min.
For `CCn1cccc1-c1cc2cc(NC(=O)C3CC3F)ncc2c(N)c1F` (configuration not stated) [US20250161319, Example 2], the pIC50 – broadly, the IC50 on a negative log10 scale, so that one unit is a factor of ten – is > 7.30.

`CC(C)n1cccc1-c1cc2cc(NC(=O)C3CC3F)ncc2c(N)c1F` (configuration not stated) [US20250161319, Example 3]: the pIC50 is > 7.30.

With `C=Cn1cccc1-c1cc2cc(NC(=O)C3CC3F)ncc2c(N)c1F` (configuration not stated) [US20250161319, Example 4], the pIC50 was > 7.30.

Consider `Cn1cccc1-c1cc2cc(NC(=O)c3ccc(N4CCNCC4)cc3)ncc2c(N)c1F` [US20250161319, Example 6], for which the negative logarithm of the IC50 (pIC50) was > 7.00.

Consider `CN1CCN(c2ccc(C(=O)Nc3cc4cc(-c5cccn5C)c(F)c(N)c4cn3)cc2)CC1` [US20250161319, Example 7], for which the pIC50 was > 6.52.

As to `CCn1cccc1-c1cc2cc(NC(=O)C3CCC(F)CC3)ncc2c(N)c1F` (configuration not stated) [US20250161319, Example 9], the pIC50 was > 6.52.

In the case of `Cn1cccc1-c1cc2cc(NC(=O)C3CC3F)ncc2c(F)c1C#N` (configuration not stated) [US20250161319, Example 10], the negative-log IC50 (pIC50) is < 6.52.
